# According to the NIST ThermoML archive (doi:10.1021/je200872n):
# ± gives the expanded uncertainty stated by the source.
# Key:
# [1] = mn = molality of the nth substance listed, in mol/kg; details: 298.15 K, 101 kPa, Liquid; for mass density: Vibrating tube method; for viscosity: Capillary tube (Ostwald / Ubbelohde) method
# [2] = refractive index (Na D-line) (dimensionless); details: 298.15 K; 101.33 kPa; Liquid; Standard Abbe refractometry
# [3] = 298.15 K, Liquid
smiles,measurement,setting,value
CCCCn1cc[n+](C)c1.[Br-] [1-butyl-3-methylimidazolium bromide] + CN(C)C=O,mass density,[1]; m1 = 0.1012,951.01 ± 0.46 kg/m3
same,mass density,[1]; m1 = 0.1527,954.4 ± 0.46 kg/m3
same,mass density,[1]; m1 = 0.197,957.2 ± 0.46 kg/m3
CCC[n+]1ccn(C)c1.[Br-] [1-methyl-3-propylimidazolium bromide] + CN(C)C=O,mass density,[1]; m1 = 0.03,946.19 ± 0.46 kg/m3
same,mass density,[1]; m1 = 0.0789,949.63 ± 0.46 kg/m3
same,mass density,[1]; m1 = 0.122,952.52 ± 0.46 kg/m3
CCCCCn1cc[n+](C)c1.[Br-] [1-pentyl-3-methylimidazolium bromide] + CN(C)C=O,mass density,[1]; m1 = 0.026,947.47 ± 0.46 kg/m3
same,mass density,[1]; m1 = 0.0508,949.26 ± 0.46 kg/m3
same,mass density,[1]; m1 = 0.0747,950.79 ± 0.46 kg/m3
"Oc1ccccc1C=Nc1ccccc1N=Cc1ccccc1O [2,2'-[1,2-phenylenebis(nitrilomethylidyne)]bis-phenol] + CN(C)C=O",viscosity,[1]; m1 = 0.01,0.802 ± 0.008 mPa·s
same,viscosity,[1]; m1 = 0.0302,0.818 ± 0.008 mPa·s
same,viscosity,[1]; m1 = 0.0505,0.833 ± 0.008 mPa·s
same,viscosity,[1]; m1 = 0.0698,0.847 ± 0.008 mPa·s
same,viscosity,[1]; m1 = 0.0851,0.859 ± 0.008 mPa·s
same,viscosity,[1]; m1 = 0.1098,0.878 ± 0.008 mPa·s
same,viscosity,[1]; m1 = 0.1268,0.89 ± 0.008 mPa·s
same,viscosity,[1]; m1 = 0.1507,0.905 ± 0.008 mPa·s
same,viscosity,[1]; m1 = 0.1705,0.919 ± 0.008 mPa·s
same,mass density,[1]; m1 = 0.0295,946.01 ± 0.46 kg/m3
same,mass density,[1]; m1 = 0.051,947.47 ± 0.46 kg/m3
same,mass density,[1]; m1 = 0.0697,948.75 ± 0.46 kg/m3
same,mass density,[1]; m1 = 0.0894,950.08 ± 0.46 kg/m3
same,mass density,[1]; m1 = 0.1106,951.51 ± 0.46 kg/m3
same,mass density,[1]; m1 = 0.1299,952.82 ± 0.46 kg/m3
same,mass density,[1]; m1 = 0.1465,953.94 ± 0.46 kg/m3
same,mass density,[1]; m1 = 0.1701,955.51 ± 0.46 kg/m3
same,mass density,[1]; m1 = 0.1898,956.83 ± 0.46 kg/m3
CCCCCCn1cc[n+](C)c1.[Br-] [3-hexyl-1-methyl-1H-imidazolium bromide] + CN(C)C=O,mass density,[1]; m1 = 0.0245,945.76 ± 0.46 kg/m3
same,mass density,[1]; m1 = 0.0738,948.9 ± 0.46 kg/m3
same,mass density,[1]; m1 = 0.1205,951.72 ± 0.46 kg/m3
CN(C)C=O [dimethylformamide],refractive index,[2],1.4281 ± 0.0004
same,mass density,"[3]; 101 kPa, Vibrating tube method",944 ± 0.46 kg/m3
same,viscosity,"[3]; 101.33 kPa, Capillary tube (Ostwald / Ubbelohde) method",0.805 ± 0.008 mPa·s
